Data published in patent publication US6046231A, “Use of 4'-bromoflavone in a cancer chemopreventative composition and method” (The Board of Trustees of the University of Illinois, priority 1999, dated 2000).

Tests used:
[1] = tested on: QR mRNA, Hepa 1c1c7 cells; assay: RT-PCR of QR mRNA in Hepa 1c1c7 cells; format: cell-based, murine
Experimental: RT-PCR Analysis of QR mRNA Expression. Primers were designed based on rat QR gene and custom synthesis. Total RNA was isolated from cultured Hepa 1c1c7 cells with TRIzol® reagent (Life Technologies, Inc.) and quantified using a UV-spectrometer. The reverse transcription of RNA was performed in a final volume of 20 μl containing 5× First Straind Synthesis Buffer (Life Technologies, Inc.), 5 mM MgCl2, 1 mM of each dNTPs, 1 unit Rnase inhibitor (Life Technologies, Inc.), 2.5 units SuperScript II reverse transcriptase (Life Technologies, Inc.), 2.5 μM oligo (dT)16, 0.2 μg total RNA, and DEPC-treated water. After incubation at 47° C. for 30 min, the RT-reaction was terminated by heating to 70° C. for 15 minutes. To the newly synthesized cDNA (1 μL), a PCR reaction mixture (Advantage KlenTaq polymerase Mix, CloneTech) containing 3 mM MgCl2, 2.5 units Taq polymerase, 6 pmol of primers for QR gene (5'-[…]-3'; and 3 pmol of primers for β-actin, 5'-[…]-3'), (5'-[…]-3'; 5'-[…]-3') as internal control was added to bring the final volume to 50 μl. The PCR reaction was heated to 94° C. for 1 min and immediately cycled 27 times through a 30 second denaturing step at 94° C., a 45 second annealing step at 55° C., a 60 second elongation step at 72° C. with Perkin Elmer 2400 themocycler. Following the final cycle, a 5 minute elongation step at 72° C. was performed. Aliquots of the PCR product were electrophoresed on 2.5% agarose gels (Life Technologies, Inc.), and PCR fragments were visualized with ethidium bromide staining, quantified by scanning densitometry, and expressed as folds increase after normalization to β-actin gene expression.
Induction of QR mRNA in Hepa 1c1c7 Cells. […] EHPA 1c1c7 cells were treated with 4'-BF (10 μM) or DMSO (solvent control) for 2, 4, 8, 16, 24, or 48 hours. […] Dose-dependent effects of 4'-BF were analyzed at the time of maximum induction (24 hours), and QR mRNA expression was induced in the concentration range of 0.8-50 μM. In particular, FIG. 2 illustrates RT-PCR analysis of QR mRNA levels in Hepa 1c1c7 cells after treatment with 4'-BF. In FIG. 2(A), Hepa 1c1c7 cells were treated with the indicated concentrations of 4'-BF for 24 hours. In FIG. 2(B), Hepa 1c1c7 cells were treated with 10 μM 4'-BF for the indicated periods of time. Reverse transcription was carried out by SuperScript II reverse transcriptase (Life Technologies, Inc.) and oligo(dT)16. The cDNA was amplified with Advantage Klen Taq polymerase (Clontech) by using QR primers and β-acrin (internal control), aliquots of the PCR product were electrophoresed on 2.5% agarose gels (Bio-Rad), and PCR fragments were visualized with ethidium bromide staining.

cytochrome P4501A1 = assay: Inhibition of TCDD-induced EROD activity; format: biochemical
[2] = tested on: quinone reductase (QR), mutant Hepa 1c1c7 cells (TAOBP^r cl and BP^r cl); assay: QR induction in mutant Hepa 1c1c7 cell lines (mono-/bifunctional inducer); format: cell-based, murine; conditions: wild-type vs mutant cells
Experimental: Determination of Quinone Reductase Activity in Cell Cultures. To determine the potency of inducers, Hepa 1c1c7 murine hepatoma cells as described in the Gerhauser publication were placed in 96-well plates at a density of 1×10^4 cells/ml in 200 μl of medium. After a preincubation period of 24 hr, the media were decanted and 190 μl fresh media were added to each well. Ten (10) μl test agents dissolved in 10% DMSO (final concentration of DMSO is 0.5%) with a serial 2-fold dilutions were introduced to each well, and the plates were incubated for an additional 48 hours. Specific QR activity was determined by measuring the NADPH-dependent menadiol-mediated reduction of 3-(4, 5-dimethylthiazo-2-yl)-2,5-diphenyltetrazolium bromide to blue formazan formed per mg protein per minute. Protein was determined in an identical set of test plates by staining with crystal violet. […] Induction of QR activity was calculated by comparing the QR specific activity of agent-treated cells with that of solvent-treated cells, and a plot of ratio was generated. […]
Induction of Quinone Reductase in Hepa 1c1c7 Cells. […] Induction of QR activity was calculated by comparing the QR specific activity of agent-treated cells with the QR specific activity of solvent-treated cells, and a plot of ratios was generated. […]

`O=c1cc(-c2ccc(Br)cc2)oc2ccccc12` [4'-Bromoflavone] was tested. Which “QR mRNA levels” value ([1]; 0-50 μM for 24 h) did it give?
The value was “significantly increased by 4'-BF at various concentrations”.

And the “QR mRNA, time course from 8 to 24 hours” value ([1]; 10 μM)?
The value was “no significant differences from 8 to 24 hours”.

What about the “incubation time after which QR mRNA increased” value ([1]; 10 μM) of the same compound?
Its value is 8 h.

And the “time of maximum QR mRNA induction” value ([1]; 10 μM)?
Its value is 24 h.

And the “concentration range of QR mRNA induction” value ([1]; 24 h)?
The value was 0.8 to 50 µM.

And the “inhibition of TCDD-induced EROD activity” value (cytochrome P4501A1)?
Its value is “significantly inhibit”.

What about the “inducer type (mono-/bifunctional)” value [2] of the same compound?
The value was “bifunctional inducer”.
